This is an account of results in patent publication US5270334A, “4-methoxy-5-methyl-pyran-3-ol natural products and derivatives thereof” (E. R. Squibb & Sons, Inc., priority 1992, dated 1993).

Structures are written as SMILES.

Assay [1] has as its target T1, lanosterol demethylase of Candida albicans (Candida albicans, UniProt P10613).
T1 construct: 14C-acetate sterol labelling, TLC
In words: inhibition of lanosterol demethylase, radiolabeled metabolic assay (14C-acetate, lanosterol accumulation). In kind it is cell-based. Conditions: Candida albicans SC5314, 14C-acetate, 30°. The procedure:
(§1) The inhibition of lanosterol demethylase was determined by two methods: the spectrophotometric carbon monoxide binding assay of Omura and Sato (J. Biol. Chem. 239:2370-2378, 1964) and by a radiolabeled metabolic assay.
The ability of scopularin and its alcohol to inhibit the lanosterol demethylase of Candida albicans can also be visualized by a metabolic assay. Candida albicans, SC5314, was grown overnight at 30° with shaking in the same medium as that used above. Cells were harvested by centrifugation and resuspended in water to give an optical density of 0.3 at 660 nm. 750 μl of this cell suspension, 300 μl of a medium containing 0.35 g Difco yeast nitrogen base without amino acids, 1 g glucose and distilled water to 10 ml, 100 μl of test material and distilled water were combined to give a final volume of 1.425 ml. This was incubated for 15 minutes at 30° C. with shaking, then 3 μCi ^14 C-acetate was added and continued to incubate for 1 hour. Cells were harvested by centrifugation and extracted with 2×0.5 ml methanol; centrifuged, decanted supernate and repeated the extraction with […] methanol-benzene (1:1). Centrifuged, decanted; combined supernates, dried and resuspended in 100 μl chloroform-methanol (1:1). The aliquots were spotted onto silica gel 60 (Merck) plates and developed chromatographically in a solvent containing dichloromethane-acetone (60:1). […]

Assay [2] deals with cytochrome P450 enzymes, such as lanosterol demethylase. In words: inhibition of cytochrome P450 enzymes (general statement). In kind it is biochemical. The settings on record: in words.
In another assay the target is T2, lanosterol demethylase (Candida albicans, UniProt P10613).
T2 construct: endogenous in cells; host or cells: Candida albicans SGY677
T2 sequence (P10613 whole entry): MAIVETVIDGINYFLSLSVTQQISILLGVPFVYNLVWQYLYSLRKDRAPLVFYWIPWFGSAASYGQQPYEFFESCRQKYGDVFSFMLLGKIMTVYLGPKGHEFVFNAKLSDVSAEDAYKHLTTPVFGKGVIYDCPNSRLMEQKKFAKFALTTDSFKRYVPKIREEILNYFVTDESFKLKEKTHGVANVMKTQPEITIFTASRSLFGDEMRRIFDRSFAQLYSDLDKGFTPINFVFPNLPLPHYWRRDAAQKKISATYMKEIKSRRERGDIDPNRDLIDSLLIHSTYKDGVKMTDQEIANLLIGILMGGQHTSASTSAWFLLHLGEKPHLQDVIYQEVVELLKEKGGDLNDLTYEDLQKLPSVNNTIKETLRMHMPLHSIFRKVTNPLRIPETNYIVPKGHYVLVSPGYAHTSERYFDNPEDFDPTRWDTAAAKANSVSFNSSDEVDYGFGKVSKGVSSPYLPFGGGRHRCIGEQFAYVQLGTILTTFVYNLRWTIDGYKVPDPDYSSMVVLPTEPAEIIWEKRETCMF
In words: inhibition of lanosterol demethylase, spectrophotometric carbon monoxide binding assay. The settings on record: Candida albicans SGY677; read-out: concentration which gives 50% inhibition of carbon monoxide binding. How it is done:
as §1
Cells of Candida albicans, SGY677, were grown overnight without shaking at 30° C. in a medium consisting of yeast extract 1%, peptone 2%, glucose 2% and distilled water. Cells were harvested by centrifugation and resuspended in 0.65M mannitol to an optical density at 600 nm of 2.5. At this density 1 ml of cells was equal to 6.7 mg constant dry weight (105° C. for 18 hours).
Scopularin and its alcohol derivative of Example 4 were added to the enzyme and the inhibition of carbon monoxide binding determined over a range of inhibitor concentrations.

A further assay has as its system yeasts and fungi. In words: activity against a variety of yeasts and fungi (general statement). Type of assay: cell-based. The settings on record: in words.

T1 sequence (P10613 whole entry): as above

`CCC/C=C/C=C/C=C(\C)[C@H]1OC[C@@H](C)[C@@H](OC)[C@@H]1O` (relative stereo) [Example 4]: in assay [1], the “concentration causing accumulation of lanosterol, consistent with inhibition of lanosterol demethylase” value is recorded as 1.4×10^-6. The “inhibition of cytochrome P450 enzymes, such as lanosterol demethylase” value in assay [2] is listed as “inhibitor”. For the same compound, the IC50 on lanosterol demethylase came to 14 µM.

For `C/C=C/C=C/C=C(\C)[C@@H]1OC[C@H](C)[C@H](OC)[C@H]1OC(=O)CN[C@@H]1O[C@H](CO)[C@@H](O)[C@H](O)[C@H]1O` [Ic], the “inhibition of cytochrome P450 enzymes, such as lanosterol demethylase” value in assay [2] is given as “inhibit”. For the same compound, the “activity against a variety of yeasts and fungi” value with yeasts and fungi is reported as “has activity”.
